Assay results taken from US20250387371A1, “COMPOSITIONS AND FORMULATION METHODS FOR SUSTAINED LOCAL RELEASE OF ANTIFIBROTICS” (THE HOPKINS UNIVERISTY, priority 2022, published 2025).
≈ marks a conversion by molar mass, not a printed value. Read-outs that look alike come from different tables or passages of the source.

Experiments:
[1] = system: small intestine fibrosis mouse model; assay: Mouse intestine transplant fibrosis model; format: in vivo; conditions: three times daily oral 100 mg/kg for 7 days
Protocol: An intestine transplantation model (FIG. 6) that was previously used to validate the antifibrotic efficacy of oral pirfenidone was employed. Meier et al., 2016. Sul-NC at a dose of 50 mg/kg or 150 mg/kg was given as a single injection at the site of the transplant and compared to oral pirfenidone at the dose previously described to be effective in the model, three times daily oral dosing with 100 mg/kg. […] Again, there was a striking difference between the dose and frequency of administration when comparing pirfenidone (three times daily dosing, total dose 2,100 mg/kg) vs Sul-NC (single dose, 50 mg/kg).
5-8 week old male C57BL/6J mice were utilized in an intestine transplantation model with minor modifications (FIG. 6). Meier et al., 2016. Briefly, a 6-cm segment of small intestine proximal to the ileocecal valve was excised from a donor mouse in a sterilized biosafety cabinet. The tissue was washed with cold saline 3 times, and carefully cut into 1 cm segments that were placed in a petri dish with cold saline. The back neck of the recipient mice was shaved. […] Four representative images were taken for each tissue to quantify the collagen thickness. For each image, 10 different areas were measured by a masked observer with image J Fiji (NIH, Bethesda, MD). Data were analyzed with GraphPad Prism 9 (San Diego, CA, USA).

[2] = system: human primary colonic fibroblasts (CCD-18Co) activated with TGF-β; assay: High throughput microscopy-based drug screening (α-SMA and COL1A1 immunocytochemistry); format: cell-based; conditions: TGF-β-activated CCD-18Co, 4 mM
Source text: To identify potential antifibrotic agents, a high-throughput microscope-based drug screening approach using human primary colonic fibroblasts (CCD-18Co) activated with transforming growth factor-β (TGF-β) was used. A panel of 1,586 FDA-approved small molecule drugs were then screened for their ability to reduce expression of α-SMA and type 1 collagen (COL1A1) as assessed by fluorescent immunocytochemistry. Based on its known antifibrotic effects, pirfenidone was included in this screen and found effective at a dose of 4 mM (FIG. 1A).
Human primary colonic fibroblasts (CCD-18Co) were seeded in 96 well flat bottom plate. Twenty-four hours later, cells were washed and starved with alpha-MEM medium without FBS for 24 h. The cells were then washed and the media was replaced with alpha-MEM supplemented with 10% FBS containing 5 ng/ml TGF-β and activated for 48 h. The cells were then washed again and fresh medium containing 5 ng/ml TGF-β and 10 μM of a drug from a library of 1,586 FDA approved small molecules was applied to the cells. After 4 days, the cells were fixed with 10% neutral formalin for 15 min and permeabilized with 0.5% Triton X-100 in PBS. […] Images were analyzed with Image J2 Fiji (NIH, Bethesda, MD) to determine the drug treatment efficacy as assessed by reduction in the intensity of α-SMA and collagen staining per cell. […]

[3] = system: bleomycin-induced mouse skin fibrosis model; assay: Bleomycin-induced skin fibrosis model; format: in vivo; conditions: 4 weeks
Protocol: There is a paucity of animal models of GI tract fibrosis/strictures. Li et al., 2021. To obtain preliminary evidence regarding efficacy of Sul-NC as antifibrotic in vivo, a well-described and reproducible bleomycin-induced rodent skin fibrosis model was used. Yamamoto et al., 1999. To induce fibrosis, bleomycin was injected in mouse skin at five spots within a 1×1 cm region on the back every other day for four weeks (FIG. 3), as previously described. Yamamoto et al., 1999. […] In addition, the Masson's Trichrome staining confirmed that the thickness of the dermis was due to deposition of collagen and other ECM proteins (blue staining in the figure). Of note, there was a striking difference between the dose and frequency of administration when comparing pirfenidone (daily dosing, total dose 2,800 mg/kg) vs Sul-NC (once weekly, total dose 200 mg/kg).
5-8 week old male C57BL/6J mice were utilized for bleomycin induced skin fibrosis model. The upper back was shaved, and 100 μL bleomycin (0.5 mg/ml in PBS) was injected subcutaneously every other day into one of five sectors in a defined 1-cm^2 area (see FIG. 3). […] Five representative images for each mouse were taken to quantify skin dermal thickness. For each image, five different areas were measured by a masked observer with image J Fiji (NIH, Bethesda, MD). Data were analyzed with GraphPad Prism 9 (San Diego, CA, USA).

[4] = system: CCD-18Co cells; assay: RT-PCR of α-SMA (ACTA2) expression in activated CCD-18Co cells; format: cell-based, human
Protocol: (§1) RNA was extracted using TRIzol Reagent as previously described. Li et al., 2017. RNAs were reverse transcribed into cDNA with ReverAid First Strand cDNA synthesis kit. SYBR Green PCR Master Mix kit was utilized for the real time PCR using a QuantStudio 3 PCR machine (Applied Biosystems, Waltham, MA). Primers used are detailed in Table 6. Each reaction was performed in triplicate for each primer with a no-template negative control. QuantStudio Design and Analysis Software 1.5.2 was used to analyze the data using the ΔΔCT method.

[5] = system: LX2 cells; assay: RT-PCR of α-SMA (ACTA2) expression in activated LX2 cells; format: cell-based, human; conditions: activated LX-2
Protocol: as §1

[6] = mouse, in vivo, sc, 50 mg/kg
Protocol: Each treatment group contain 3-9 mice. […] MTD was injected and blood were taken for liver and kidney function test (Table 5).

[7] = In vitro drug release under accelerated conditions (rapid equilibrium dialysis); format: physicochemical
Protocol: Sul-NC (5 mg/mL, 50 μL) were placed in a rapid equilibrium dialysis s(RED) device with an 8 kDa molecular weight cutoff (n=3). The outer reservoir was filled with 1 mL of 0.5% Tween 80 in phosphate buffered saline (PBS-T) solution. The samples were incubated on an orbital shaker with temperature control at 37° C. and 300 rpm. Every 24 h, 1 mL of the solution was collected and replenished with fresh 1 mL PBS-T solution. […] Mobile phase A was water containing 0.1% trifluoroacetic acid (TFA) and mobile phase B was acetonitrile containing 0.1% TFA. The isocratic flow was composed 70% of mobile phase A and 30% mobile phase B at 1 mL/min flow rate for 10 min. […] The drug amount was quantified and used to calculate the accumulation percentage. The release curves were plotted with GraphPad Prism 9 (San Diego, CA).

[8] = topical dosing; cited from earlier work
[9] = system: C57BL/6J mice; conditions: both, mouse, in vivo; for Survival: ip
[10] = in vivo; conditions: both, C57BL/6J, mouse, sc
[11] = system: human hepatic stellate cells (LX2); assay: Western blot of α-SMA and COL1A1 in activated LX2 cells; format: cell-based; conditions: activated LX2, 10 μM, 96 h
Protocol: (§2) LX2 and CCD-18Co were seeded in 6 well plate. Twenty-four hours later, cells were washed and starved with Alpha MEM medium without FBS for 24 h. The cells were then washed and the media was replaced with Alpha MEM supplemented with 10% FBS containing 5 ng/ml TGF-β and activated for 48 h. […] The cells were then washed three times with cold PBS and treated with protein lysis RIPA buffer with complete protease inhibitor cocktail. Protein concentration was determined with Pierce BCA protein Assay Kit. 20 μg of total protein lysate from each treatment group was loaded into each well of a Mini-Protean TGX gel (4-15%), and electrophoresis was performed using 1× Tris/Glycine/SDS Buffer. Proteins were then transferred to nitrocellulose membranes using 1× Tris/Glycine with methanol. Membranes were blocked with Intercept (TBS) blocking buffer for 1 h at room temperature and then incubated with anti-α-SMA antibody (1:1000), and COL1A1 antibody (1:1000) at 4° C. overnight. Membranes were washed with TBS-0.1% Tween three times for 10 min each, and then incubated in IRDye-Secondary antibodies (1:10,000) at room temperature for 1 h. The membranes were then washed with TBS-0.1% Tween three times for 10 min each and rinsed with 1×TBS to remove residual Tween20. Membranes were then scanned with an Odyssey Image System (Li-Cor, Lincoln, NE, USA).

[12] = physchem; format: physicochemical
[13] = system: CCD-18Co cells; assay: Western blot of α-SMA and COL1A1 in activated CCD-18Co cells; format: cell-based, human; conditions: 10 μM, 96 h
Protocol: as §2

Structure (SMILES) | collagen layer thickness [1] [μm] | decrease in the staining of α-SMA and COL1A1 [2] | thickness of the dermis compared to Vehicle ([3]; daily oral 100 mg/kg) | concentration below which no effect on ACTA2 expression was shown [4] [mM] | concentration below which no effect on ACTA2 expression was shown [5] [mM] | thickness of the dermis compared to Vehicle ([3]; 10-mg/kg IP every other day) | blood level of ALT and BUN [6] | passage of free drug through the dialysis membrane [7] | elimination via the feces [8] | dose resulting in reduced survival [9] [mg/kg] | Survival ([9]; 15 mg/kg) | Survival ([9]; 30 mg/kg) | Survival ([9]; 40 mg/kg) | MTD [10] [mg/kg] | protein production of α-SMA and COL1A1 (Western blot) [11] | solubility [12] [µg/mL] | protein production of α-SMA and COL1A1 (Western blot) [13]
Cc1ccc(=O)n(-c2ccccc2)c1 [pirfenidone] | 9.1±0.3 | effective | significantly reduced | 4 | 4 |  |  |  |  |  |  |  |  |  |  |  | 
Clc1ccc(CSC(Cn2ccnc2)c2ccc(Cl)cc2Cl)cc1 (centres unmarked) [sulconazole] |  |  |  |  |  | significantly reduced | increased | not impeded by the dialysis membrane | one of the primary clearance routes | 50 | 5/5 (100%) | 5/5 (100%) | 5/5 (100%) | 50 | significantly reduced | 240 (≈ 603 µM) | significantly reduced
